In ChEMBL document CHEMBL1145519, “Exploitation of structural and regulatory diversity in glutamate racemases” (Nature, 2007):
In brackets after ≈: the same amount, converted by molar mass.

What was measured:
Helicobacter pylori = assay: Antimicrobial activity against Helicobacter pylori; format: functional
Staphylococcus aureus = assay: Antimicrobial activity against Staphylococcus aureus; format: functional
[1] = Inhibition of MurI in Escherichia coli
Glutamate racemase [2] = molecular target: T1, Glutamate racemase (Helicobacter pylori (strain ATCC 700392 / 26695) (Campylobacterpylori), UniProt P56068); assay: Inhibition of Helicobacter pylori glutamate racemase
T1 sequence (P56068 whole entry): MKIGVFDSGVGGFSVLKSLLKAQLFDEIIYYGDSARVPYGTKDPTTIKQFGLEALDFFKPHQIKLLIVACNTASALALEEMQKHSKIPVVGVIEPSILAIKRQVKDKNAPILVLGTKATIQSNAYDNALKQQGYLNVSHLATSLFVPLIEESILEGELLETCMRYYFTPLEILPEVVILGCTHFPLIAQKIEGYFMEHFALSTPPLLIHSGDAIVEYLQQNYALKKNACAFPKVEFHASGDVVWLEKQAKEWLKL

[3] = Inhibition of MurI in Staphylococcus aureus
Streptococcus pneumoniae = assay: Antimicrobial activity against Streptococcus pneumoniae; format: functional
Glutamate racemase [4] = molecular target: T2, Glutamate racemase (Streptococcus pneumoniae serotype 4 (strain ATCC BAA-334 / TIGR4), UniProt P63640); assay: Inhibition of MurI in Streptococcus pneumoniae
T2 sequence (P63640 whole entry): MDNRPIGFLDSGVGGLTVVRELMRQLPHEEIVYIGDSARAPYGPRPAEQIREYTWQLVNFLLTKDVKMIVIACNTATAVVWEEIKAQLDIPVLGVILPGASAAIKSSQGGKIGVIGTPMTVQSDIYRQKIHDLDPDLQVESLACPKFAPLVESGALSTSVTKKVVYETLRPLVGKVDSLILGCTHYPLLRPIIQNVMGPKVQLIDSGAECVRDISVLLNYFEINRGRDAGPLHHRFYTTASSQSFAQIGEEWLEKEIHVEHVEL

Escherichia coli = assay: Antimicrobial activity against Escherichia coli; format: functional
Glutamate racemase [5] = molecular target: T1, Glutamate racemase; assay: Binding affinity to Helicobacter pylori MurI by protein fluorescence binding assay
Glutamate racemase [6] = molecular target: Glutamate racemase (Helicobacter pylori (strain ATCC 700392 / 26695) (Campylobacterpylori), UniProt P56068, E151K); assay: Inhibition of Helicobacter pylori MurI E151K mutant
Glutamate racemase [7] = molecular target: Glutamate racemase (Helicobacter pylori (strain ATCC 700392 / 26695) (Campylobacterpylori), UniProt P56068, A75T); assay: Inhibition of Helicobacter pylori MurI A75T mutant
Glutamate racemase [8] = molecular target: T1, Glutamate racemase; assay: Binding affinity to Helicobacter pylori MurI by isothermal titration calorimetry

Glutamate racemase (Helicobacter pylori (strain ATCC 700392 / 26695) (Campylobacterpylori), UniProt P56068, E151K), sequence (P56068 whole entry E151K): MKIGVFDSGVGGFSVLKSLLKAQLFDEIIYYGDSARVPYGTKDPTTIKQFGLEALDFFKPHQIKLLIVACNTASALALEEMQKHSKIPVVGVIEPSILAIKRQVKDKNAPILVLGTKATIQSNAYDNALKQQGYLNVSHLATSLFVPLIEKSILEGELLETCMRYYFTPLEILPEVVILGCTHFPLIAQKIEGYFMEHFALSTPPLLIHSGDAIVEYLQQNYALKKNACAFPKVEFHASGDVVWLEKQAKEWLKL
Glutamate racemase (Helicobacter pylori (strain ATCC 700392 / 26695) (Campylobacterpylori), UniProt P56068, A75T), sequence (P56068 whole entry A75T): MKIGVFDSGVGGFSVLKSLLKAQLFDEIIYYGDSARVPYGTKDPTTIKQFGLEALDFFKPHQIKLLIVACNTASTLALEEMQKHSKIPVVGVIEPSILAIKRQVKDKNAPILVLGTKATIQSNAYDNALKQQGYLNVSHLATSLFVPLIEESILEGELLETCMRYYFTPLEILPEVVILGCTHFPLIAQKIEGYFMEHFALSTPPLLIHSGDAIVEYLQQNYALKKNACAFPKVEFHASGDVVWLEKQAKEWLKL

Row | MIC (Helicobacter pylori) [µg/mL] | MIC (Staphylococcus aureus) [µg/mL] | IC50 [1] [µM] | IC50 (Glutamate racemase [2]) [µM] | IC50 [3] [µM] | MIC (Streptococcus pneumoniae) [µg/mL] | IC50 (Glutamate racemase [4]) [µM] | MIC (Escherichia coli) [µg/mL] | Kd (Glutamate racemase [5]) [µM] | Kd (Glutamate racemase [8]) [µM] | Compound | Ki (Glutamate racemase [6]) [µM] | Ki (Glutamate racemase [2]) [µM] | Ki (Glutamate racemase [7]) [µM]
1 | 0.5 (≈ 1 µM) | > 64 | > 400 | 0.025 | > 400 | > 64 | > 400 | > 64 | 0.025 | – | Cn1cc(C#N)cc1-c1c2c(=O)n(C)c(=O)n(CC3CC3)c2nn1Cc1ccnc2ccc(Cl)cc12 | – | – | –
2 | – | – | – | – | – | – | – | – | – | – | N[C@H](CCC(=O)O)C(=O)O [D-GLUTAMATE] | > 100000 | 5.8 | 661
3 | 4 (≈ 9.1 µM) | > 64 | > 400 | 1.4 | > 400 | > 64 | > 400 | > 64 | 3.9 | 2.9 | CC(C)Cn1c(=O)n(C)c(=O)c2c(-c3ccncc3)n(Cc3cccc4ccccc34)nc21 | – | – | –
